Measurements: patent US11358952B2, “Substituted 4-aminoisoindoline-1,3-dione compounds, compositions thereof, and methods of treatment therewith” (Celgene Corporation, priority 2018, dated 2022)

system: SU-DHL-4 cell line; experiment: SU-DHL-4 cell proliferation assay (Cell Titer-Glo viability); assay type: cell-based; conditions: Homo sapiens; cell viability IC50 activity level, DLBCL cell line SU-DHL-4, 120 hours post-treatment; read-out: SU-DHL-4 Act
Outline: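 SU-DHL-4 cells (500/well, RPMI-1640 + 10% FBS) exposed to 20-point compound dilutions (0.5 nM–10 μM, 0.1% DMSO) for 120 h at 37°C, 5% CO2. Viability measured by Cell Titer-Glo luminescence at t0 and at 120 h. IC50 is the concentration giving 50% of DMSO control, from a four-parameter logistic fit.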

Row | Compound | IC50
1 | O=C1CCC(N2C(=O)c3cccc(NCc4ccc(CN5CCN(c6ccc(Cl)cn6)CC5)cc4)c3C2=O)C(=O)N1 (centres unmarked) [Cpd 18, 4-(4-((4-(5-chloropyridin-2-yl)piperazin-1-yl)methyl)benzylamino)-2-(2,6-dioxopiperidin-3-yl)isoindoline-1,3-dione] | 751 to 1000 nM
2 | Cc1cc(CNc2cccc3c2C(=O)N(C2CCC(=O)NC2=O)C3=O)ccc1CN1CC(n2cccn2)C1 (centres unmarked) [Cpd 77, 4-(4-((3-(1H-pyrazol-1-yl)azetidin-1-yl)methyl)-3-methylbenzylamino)-2-(2,6-dioxopiperidin-3-yl)isoindoline-1,3-dione] | 200 to 500 nM
3 | Cc1cc(CNc2cccc3c2C(=O)N(C2CCC(=O)NC2=O)C3=O)ccc1CN1CCC2(CCC2)CC1 (centres unmarked) [Cpd 46, 4-(4-(7-azaspiro[3.5]nonan-7-ylmethyl)-3-methylbenzylamino)-2-(2,6-dioxopiperidin-3-yl)isoindoline-1,3-dione] | < 200 nM
4 | O=C1CCC(N2C(=O)c3cccc(NCc4ccc(CN5CC(c6ccccc6)C5)cc4)c3C2=O)C(=O)N1 (centres unmarked) [Cpd 6, 2-(2,6-dioxopiperidin-3-yl)-4-(4-((3-phenylazetidin-1-yl)methyl)benzylamino)isoindoline-1,3-dione] | 501 to 750 nM
5 | O=C1CCC(N2C(=O)c3cccc(NCc4ccc(CN5CCN(c6ccc(F)cc6F)CC5)c(F)c4)c3C2=O)C(=O)N1 (centres unmarked) [Cpd 109, 4-(4-((4-(2,4-difluorophenyl)piperazin-1-yl)methyl)-3-fluorobenzylamino)-2-(2,6-dioxopiperidin-3-yl)isoindoline-1,3-dione] | < 200 nM
6 | CCc1nnc(N2CCN(Cc3ccc(CNc4cccc5c4C(=O)N(C4CCC(=O)NC4=O)C5=O)cc3)CC2)o1 (centres unmarked) [Cpd 198, 2-(2,6-dioxopiperidin-3-yl)-4-(4-((4-(5-ethyl-1,3,4-oxadiazol-2-yl)piperazin-1-yl)methyl)benzylamino)isoindoline-1,3-dione] | 751 to 1000 nM
7 | Cc1cc(CNc2cccc3c2C(=O)N(C2CCC(=O)NC2=O)C3=O)ccc1CN1CC(N2CC3CCC(C2)O3)C1 (centres unmarked) [Cpd 223, 4-(4-((3-(8-oxa-3-azabicyclo[3.2.1]octan-3-yl)azetidin-1-yl)methyl)-3-methylbenzylamino)-2-(2,6-dioxopiperidin-3-yl)isoindoline-1,3-dione] | < 200 nM
8 | O=C1CCC(N2C(=O)c3cccc(NCc4ccc(CN5CCC6(CCOCC6)CC5)cc4F)c3C2=O)C(=O)N1 (centres unmarked) [Cpd 234, 4-(4-(3-oxa-9-azaspiro[5.5]undecan-9-ylmethyl)-2-fluorobenzylamino)-2-(2,6-dioxopiperidin-3-yl)isoindoline-1,3-dione] | < 200 nM
9 | O=C1CCC(N2C(=O)c3cccc(NCc4ccc(CN5CC6(CCC6)C5)c(F)c4)c3C2=O)C(=O)N1 (centres unmarked) [Cpd 162, 4-(4-(2-azaspiro[3.3]heptan-2-ylmethyl)-3-fluorobenzylamino)-2-(2,6-dioxopiperidin-3-yl)isoindoline-1,3-dione] | 200 to 500 nM
10 | CC(C)(C)C1CN(Cc2ccc(CNc3cccc4c3C(=O)N(C3CCC(=O)NC3=O)C4=O)cc2)C1 (centres unmarked) [Cpd 114, 4-(4-((3-tert-butylazetidin-1-yl)methyl)benzylamino)-2-(2,6-dioxopiperidin-3-yl)isoindoline-1,3-dione] | < 200 nM
11 | O=C1CCC(N2C(=O)c3cccc(NCc4ccc(CN5CCC(O)(c6ccccn6)CC5)cc4F)c3C2=O)C(=O)N1 (centres unmarked) [Cpd 167, 2-(2,6-dioxopiperidin-3-yl)-4-(2-fluoro-4-((4-hydroxy-4-(pyridin-2-yl)piperidin-1-yl)methyl)benzylamino)isoindoline-1,3-dione] | < 200 nM

Further lines, results first:

Row | IC50 | Compound
12 | 200 to 500 nM | NC(=O)c1ccc(N2CCN(Cc3ccc(CNc4cccc5c4C(=O)N(C4CCC(=O)NC4=O)C5=O)cc3)CC2)nc1 (centres unmarked) [Cpd 54, 6-(4-(4-((2-(2,6-dioxopiperidin-3-yl)-1,3-dioxoisoindolin-4-ylamino)methyl)benzyl)piperazin-1-yl)nicotinamide]
13 | < 200 nM | N#Cc1ccc(N2CCN(Cc3ccc(CNc4cccc5c4C(=O)N(C4CCC(=O)NC4=O)C5=O)cc3)CC2)c(Cl)c1 (centres unmarked) [Cpd 9, 3-chloro-4-(4-(4-((2-(2,6-dioxopiperidin-3-yl)-1,3-dioxoisoindolin-4-ylamino)methyl)benzyl)piperazin-1-yl)benzonitrile]
14 | < 200 nM | NC(=O)c1ccc(N2CCN(Cc3ccc(CNc4cccc5c4C(=O)N([C@H]4CCC(=O)NC4=O)C5=O)cc3)CC2)nc1 [Cpd 203, (S)-6-(4-(4-((2-(2,6-dioxopiperidin-3-yl)-1,3-dioxoisoindolin-4-ylamino)methyl)benzyl)piperazin-1-yl)nicotinamide]
15 | 751 to 1000 nM | COc1cc(N2CCN(Cc3ccc(CNc4cccc5c4C(=O)N(C4CCC(=O)NC4=O)C5=O)cc3)CC2)ncn1 (centres unmarked) [Cpd 136, 2-(2,6-dioxopiperidin-3-yl)-4-(4-((4-(6-methoxypyrimidin-4-yl)piperazin-1-yl)methyl)benzylamino)isoindoline-1,3-dione]
16 | < 200 nM | Cc1cc(CNc2cccc3c2C(=O)N(C2CCC(=O)NC2=O)C3=O)ccc1CN1CCC2(CCOCC2)CC1 (centres unmarked) [Cpd 236, 4-(4-(3-oxa-9-azaspiro[5.5]undecan-9-ylmethyl)-3-methylbenzylamino)-2-(2,6-dioxopiperidin-3-yl)isoindoline-1,3-dione]
17 | 501 to 750 nM | CCC1(O)CCN(Cc2ccc(CNc3cccc4c3C(=O)N(C3CCC(=O)NC3=O)C4=O)cc2)CC1 (centres unmarked) [Cpd 88, 2-(2,6-dioxopiperidin-3-yl)-4-(4-((4-ethyl-4-hydroxypiperidin-1-yl)methyl)benzylamino)isoindoline-1,3-dione]
18 | < 200 nM | NC(=O)c1cccc(N2CCN(Cc3ccc(CNc4cccc5c4C(=O)N(C4CCC(=O)NC4=O)C5=O)cc3)CC2)n1 (centres unmarked) [Cpd 181, 6-(4-(4-((2-(2,6-dioxopiperidin-3-yl)-1,3-dioxoisoindolin-4-ylamino)methyl)benzyl)piperazin-1-yl)picolinamide]
19 | < 200 nM | O=C1CCC(N2C(=O)c3cccc(NCc4ccc(CN5CCC6(CCNC6=O)CC5)cc4F)c3C2=O)C(=O)N1 (centres unmarked) [Cpd 150, 2-(2,6-dioxopiperidin-3-yl)-4-(2-fluoro-4-((1-oxo-2,8-diazaspiro[4.5]decan-8-yl)methyl)benzylamino)isoindoline-1,3-dione]
20 | 501 to 750 nM | N#Cc1cccc(N2CCN(Cc3ccc(CNc4cccc5c4C(=O)N(C4CCC(=O)NC4=O)C5=O)cc3)CC2)n1 (centres unmarked) [Cpd 138, 6-(4-(4-((2-(2,6-dioxopiperidin-3-yl)-1,3-dioxoisoindolin-4-ylamino)methyl)benzyl)piperazin-1-yl)picolinonitrile]
21 | 200 to 500 nM | CC1(C)CCN(Cc2ccc(CNc3cccc4c3C(=O)N(C3CCC(=O)NC3=O)C4=O)cc2)CC1 (centres unmarked) [Cpd 36, 4-(4-((4,4-dimethylpiperidin-1-yl)methyl)benzylamino)-2-(2,6-dioxopiperidin-3-yl)isoindoline-1,3-dione]
22 | < 200 nM | O=C1CCC(N2C(=O)c3cccc(NCc4ccc(CN5Cc6ccccc6C5)cc4)c3C2=O)C(=O)N1 (centres unmarked) [Cpd 163, 2-(2,6-dioxopiperidin-3-yl)-4-(4-(isoindolin-2-ylmethyl)benzylamino)isoindoline-1,3-dione]
23 | < 200 nM | Cc1cc(CNc2cccc3c2C(=O)N(C2CCC(=O)NC2=O)C3=O)ccc1CN1CCC(C2CCOCC2)CC1 (centres unmarked) [Cpd 214, 2-(2,6-dioxopiperidin-3-yl)-4-(3-methyl-4-((4-(tetrahydro-2H-pyran-4-yl)piperidin-1-yl)methyl)benzylamino)isoindoline-1,3-dione]
